What was measured:
Format in all cases: cell-based
A375-PLX-R cells = experiment: Cell proliferation, PLX4032-resistant A375-PLX-R cells; conditions: ERK1/2 inhibitor treatment, FIG. 5H
Experimental: (§1) A375, SK-MEL-5 and SK-MEL-28 cell lines were maintained in DMEM growth medium containing 10% FCS, 2 mM L-glutamine and 1 mM sodium pyruvate. The WM3248 cells were maintained in MCDB153:L15 (4:1) growth medium containing 2% FCS, […] insulin and 1.68 mM CaCl2. To create PLX4032-resistant cells, A375, SK-MEL-5, SK-MEL-28 and WM3248 cells were treated with […] in monolayer culture in growth medium for several weeks. The surviving cells were then expanded and cultured in increasing doses of PLX4032 up to […]. The resulting PLX4032-resistant cells, designated PLX4032-resistant (e.g., A375-PLX-R) were routinely maintained in the presence of […] PLX4032.

[1] = test system: SKMELS-PLX-R, SKMEL28-PLX-R and WM3248-PLX-R cells; experiment: Cell proliferation, other PLX4032-resistant lines; conditions: ERK1/2 inhibitor treatment, FIG. 5I
Experimental: as §1
This predicts that the BRAF inhibitors-resistant cells should remain sensitive to ERK1/2 inhibitors. To assess the role of ERK1/2 PLX4032 resistant cells were treated with SCH772984, a specific inhibitor of ERK1/2 (31), and the impact on cell proliferation was monitored.

[2] = test system: YAP1, TAZ and TEAD in A375 and A375-PLX-R cells; experiment: YAP1/TAZ/TEAD mRNA and protein level after verteporfin, monolayer cells; conditions: proteasome inhibitor with verteporfin, FIG. 4I
Experimental: Equivalent amounts of protein were electrophoresed on denaturing and reducing 10% polyacrylamide gels and transferred to nitrocellulose membrane. The membrane was blocked by 5% nonfat dry milk for one hour and incubated with 1:1000 primary antibody in 5% nonfat dry milk. Blots were rinsed in TBS-T and then incubated with secondary antibodies (1:5000) for 2 h. Secondary antibody binding was visualized using ECL Prime (Amersham) chemiluminescence detection technology. For immunostaining, cells were harvested, suspended in growth medium, and plated in LAB-TEK II Chamber Slide System. After 24 h, the cells were fixed with 4% paraformaldehyde at room temperature for 15 min, washed three with phosphate-buffered saline, in 0.1% Triton X-100 for 15 min, washed with phosphate-buffered saline, and blocked for 1 h with phosphate-buffered saline containing 7.5% fetal calf serum. Primary antibodies were added, and the slides incubated overnight at 4° C. Cells were then washed three times with phosphate-buffered saline and incubated 1 h with the appropriate Alexa Flour fluorescence probe-conjugated secondary antibody. After additional washing, the cells were stained with DAPI for 10 min prior to imaging.
Total RNA was isolated using Illustra RNAspin mini kit (GE Healthcare), and 1 μg of RNA was used for cDNA synthesis. Gene expression was measured by real time PCR using Light Cycler 480 SYBR Green I Master Mix (04-707 516 001) from Roche Diagnostics (Indianapolis, Ind.). The signals were normalized using cyclophilin A control primers. The gene specific primers used for detection of mRNA levels were as follows: cyclophilin A (forward, 5′-[…] (SEQ ID NO: 3); reverse, 5′-[…] (SEQ ID NO: 4)), TAZ (forward, 5′-GTATCCCAGCCAATC TCG (SEQ ID NO: 5); reverse, 5′-TTCTGAGTGGGGTGGTTC (SEQ ID NO: 6)) and YAP1 (forward, 5′-[…] (SEQ ID NO: 7); reverse, 5′-[…], (SEQ ID NO: 8)) (11).
To understand the mechanism of verteporfin action, monolayer A375 and A375-PLX-R cells were treated with […] verteporfin for 24 h and the impact on YAP1/TAZ mRNA and protein level was monitored. […] The proteasome is known to regulate YAP1/TAZ level (29,30) and so whether the proteasome was responsible for the observed reductions was examined.

O=C(Nc1ccc2[nH]nc(-c3ccncc3)c2c1)[C@@H]1CCN(CC(=O)N2CCN(c3ccc(-c4ncccn4)cc3)CC2)C1 [SCH772984]
A375-PLX-R cells number (A375-PLX-R cells): time-dependent reduction | proliferation of PLX4032-resistant cells [1]: reduced

CC(=O)N[C@@H](CSC(=O)[C@]1([C@@H](O)C(C)C)NC(=O)[C@H](C)[C@@H]1O)C(=O)O [lactacystin]
reversal of verteporfin-dependent reduction in YAP1, TAZ and TEAD level [2]: not reversed

From patent US11246856B2, “Methods of treating resistant cancers” (University of Maryland, Baltimore, priority 2017, dated 2022)
